Laboratory results from patent US20240376484A1, “TRANSFORMING CANNABACEAE CELLS” (Cibus US LLC, priority 2021, published 2024).

Assays:
cannabis EAs [1] = assay: Regeneration of non-transformed cannabis EAs on different SIMs, number of meristems per explant; format: cell-based; settings: added to SIM with TDZ
Description: Various experiments were directed to testing different culture media and different concentrations of components of the culture media, such as SIMs with different TDZ concentrations. […] Some experiments were directed to testing different SIMs on cannabis EAs and with different light conditions. For example, the seeds were sterilized and imbibed, and the EAs were extracted. In some experiments, the EAs were not transformed, and between 40 and 50 EAs were regenerated on each different SIMs. In further experiments, a subset of the EAs were plated on an SIM without plant growth regulators, such as TDZ, and the remaining EAs were plated on an SIM with 10 mg/L TDZ, with different groups of each subset being exposed to different light conditions.
The images 1680, 1681, 1683, 1684 show resulting explants regenerated in SIM with 1 mg/L TDZ, 2.5 mg/L TDZ, 5 mg/L TDZ, and 10 mg/L TDZ, respectively.
FIG. 16B is a graph illustrating the explants regenerated in the different SIMs as previously described by FIG. 16A and the number of resulting meristems.
In some experiments, additional TDZ concentrations were tested and different combinations of components in the SIM were tested.

cannabis EAs [2] = assay: Regeneration of cannabis EAs on SIM with 10 mg/L TDZ under different light conditions; format: cell-based; settings: for explants with 3+ meristems: 10 mg/L TDZ
Description: Various experiments were directed to testing different culture media and different concentrations of components of the culture media, such as SIMs with different TDZ concentrations. […] Based on various experiments, it is believed that cannabis plants have strong apical dominance, and breaking the apical dominance will increase transformation efficiency and result in more transgenic events. […] Some experiments were directed to testing different SIMs on cannabis EAs and with different light conditions. For example, the seeds were sterilized and imbibed, and the EAs were extracted. In some experiments, the EAs were not transformed, and between 40 and 50 EAs were regenerated on each different SIMs. In further experiments, a subset of the EAs were plated on an SIM without plant growth regulators, such as TDZ, and the remaining EAs were plated on an SIM with 10 mg/L TDZ, with different groups of each subset being exposed to different light conditions. Tables 2 and 3 summarize example media and light conditions:
The B, G, R values in Table 3 include blue, green, and red light values, along with the intensity of the light.
FIGS. 16F and 16G are graphs illustrating the results of the different light conditions on the number of meristems per explant in cultures without plant growth regulators (FIG. 16F) and with 10 mg/L TDZ (FIG. 16G). […] For example, around half of the 10 mg/L TDZ had multiple meristems, with the light II conditions resulting in 40% explants with 3+ meristems, […] explants with 3+ meristems, and light I conditions resulting in 12% explants with 3+ meristems.

| Compound | impact of SIM additive on regeneration (cannabis EAs [1]) | share of explants with multiple meristems (cannabis EAs [2]; 10 mg/L TDZ in SIM, FIG. 16G) | explants with 3+ meristems (cannabis EAs [2]; light I conditions) | explants with 3+ meristems (cannabis EAs [2]; light II conditions) | explants with 3+ meristems (cannabis EAs [2]; light II conditions (printed a second time)) |
| --- | --- | --- | --- | --- | --- |
| O=C(O)Cc1c[nH]c2ccccc12 [IAA, indoleacetic acid] | did not have a significant positive impact |  |  |  |  |
| Adenine Hemisulfate | did not have a significant positive impact |  |  |  |  |
| O=C(Nc1ccccc1)Nc1cnns1 [TDZ, thidiazuron] |  | around half | 12% | 40% | 24% |
